Experimental data: ChEMBL document CHEMBL5291721, “A preclinical secondary pharmacology resource illuminates target-adverse drug reaction associations of marketed drugs” (Nat Commun, 2023)

How the values were obtained:
[1] = target: 5-hydroxytryptamine receptor 2B (Homo sapiens, UniProt P41595)
[2] = target: T1, Prostaglandin G/H synthase 1 (Rattus norvegicus, UniProt Q63921); type: functional
T1 sequence (Q63921 whole entry): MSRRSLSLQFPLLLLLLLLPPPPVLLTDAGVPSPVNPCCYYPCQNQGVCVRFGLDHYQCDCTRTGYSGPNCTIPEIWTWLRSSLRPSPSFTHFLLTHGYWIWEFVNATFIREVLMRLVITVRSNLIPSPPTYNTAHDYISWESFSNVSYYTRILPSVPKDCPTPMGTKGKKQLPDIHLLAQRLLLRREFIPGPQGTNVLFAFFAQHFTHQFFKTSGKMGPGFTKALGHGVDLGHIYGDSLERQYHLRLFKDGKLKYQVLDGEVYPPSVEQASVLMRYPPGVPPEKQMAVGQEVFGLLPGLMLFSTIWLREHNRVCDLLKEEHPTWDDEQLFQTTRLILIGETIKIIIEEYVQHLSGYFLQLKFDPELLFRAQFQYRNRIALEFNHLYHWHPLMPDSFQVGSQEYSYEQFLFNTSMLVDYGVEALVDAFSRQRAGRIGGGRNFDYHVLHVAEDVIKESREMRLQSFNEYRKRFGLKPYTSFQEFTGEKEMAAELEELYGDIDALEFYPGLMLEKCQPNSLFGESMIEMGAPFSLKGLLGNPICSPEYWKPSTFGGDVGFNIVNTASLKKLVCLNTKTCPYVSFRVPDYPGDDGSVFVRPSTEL

[3] = target: T2, 5-hydroxytryptamine receptor 1A (Homo sapiens, UniProt P08908)
T2 sequence (P08908 whole entry): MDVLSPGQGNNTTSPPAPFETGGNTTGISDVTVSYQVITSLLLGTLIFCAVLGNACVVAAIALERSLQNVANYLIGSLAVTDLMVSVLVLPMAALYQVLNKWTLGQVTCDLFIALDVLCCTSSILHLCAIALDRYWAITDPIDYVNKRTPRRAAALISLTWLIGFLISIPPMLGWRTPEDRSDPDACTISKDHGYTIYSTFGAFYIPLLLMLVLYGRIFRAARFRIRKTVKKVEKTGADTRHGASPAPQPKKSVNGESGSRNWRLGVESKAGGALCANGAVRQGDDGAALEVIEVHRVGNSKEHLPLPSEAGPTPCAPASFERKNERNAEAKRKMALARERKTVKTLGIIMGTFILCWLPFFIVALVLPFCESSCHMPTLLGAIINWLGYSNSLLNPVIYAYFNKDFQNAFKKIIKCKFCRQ

[4] = target: T3, Nuclear receptor subfamily 1 group I member 3 (Homo sapiens, UniProt Q14994); type: functional
T3 sequence (Q14994 whole entry): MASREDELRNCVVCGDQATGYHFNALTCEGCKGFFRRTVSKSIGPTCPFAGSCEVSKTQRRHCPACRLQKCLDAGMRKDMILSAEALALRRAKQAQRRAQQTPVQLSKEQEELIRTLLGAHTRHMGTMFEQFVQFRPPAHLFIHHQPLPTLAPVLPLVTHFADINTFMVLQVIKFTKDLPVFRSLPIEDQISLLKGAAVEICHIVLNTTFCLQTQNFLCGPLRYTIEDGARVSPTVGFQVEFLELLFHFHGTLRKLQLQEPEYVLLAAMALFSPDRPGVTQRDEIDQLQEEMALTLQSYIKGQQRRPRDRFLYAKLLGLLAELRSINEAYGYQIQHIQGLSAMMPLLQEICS

[5] = target: 5-hydroxytryptamine receptor 5A (Homo sapiens, UniProt P47898)
5-hydroxytryptamine receptor 5A, sequence (P47898 whole entry): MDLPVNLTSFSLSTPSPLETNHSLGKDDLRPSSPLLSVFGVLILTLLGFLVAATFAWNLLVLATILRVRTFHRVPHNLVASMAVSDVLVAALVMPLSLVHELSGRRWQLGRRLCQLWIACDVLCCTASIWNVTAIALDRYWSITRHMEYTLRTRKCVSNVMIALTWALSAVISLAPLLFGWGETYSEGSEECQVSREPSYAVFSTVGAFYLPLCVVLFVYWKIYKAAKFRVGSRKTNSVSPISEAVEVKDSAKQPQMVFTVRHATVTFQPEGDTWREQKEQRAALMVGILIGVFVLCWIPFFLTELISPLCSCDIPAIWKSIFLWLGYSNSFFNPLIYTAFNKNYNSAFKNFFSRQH

[6] = target: Rod cGMP-specific 3',5'-cyclic phosphodiesterase subunit alpha (Homo sapiens, UniProt P16499); type: functional
Rod cGMP-specific 3',5'-cyclic phosphodiesterase subunit alpha, sequence (P16499 whole entry): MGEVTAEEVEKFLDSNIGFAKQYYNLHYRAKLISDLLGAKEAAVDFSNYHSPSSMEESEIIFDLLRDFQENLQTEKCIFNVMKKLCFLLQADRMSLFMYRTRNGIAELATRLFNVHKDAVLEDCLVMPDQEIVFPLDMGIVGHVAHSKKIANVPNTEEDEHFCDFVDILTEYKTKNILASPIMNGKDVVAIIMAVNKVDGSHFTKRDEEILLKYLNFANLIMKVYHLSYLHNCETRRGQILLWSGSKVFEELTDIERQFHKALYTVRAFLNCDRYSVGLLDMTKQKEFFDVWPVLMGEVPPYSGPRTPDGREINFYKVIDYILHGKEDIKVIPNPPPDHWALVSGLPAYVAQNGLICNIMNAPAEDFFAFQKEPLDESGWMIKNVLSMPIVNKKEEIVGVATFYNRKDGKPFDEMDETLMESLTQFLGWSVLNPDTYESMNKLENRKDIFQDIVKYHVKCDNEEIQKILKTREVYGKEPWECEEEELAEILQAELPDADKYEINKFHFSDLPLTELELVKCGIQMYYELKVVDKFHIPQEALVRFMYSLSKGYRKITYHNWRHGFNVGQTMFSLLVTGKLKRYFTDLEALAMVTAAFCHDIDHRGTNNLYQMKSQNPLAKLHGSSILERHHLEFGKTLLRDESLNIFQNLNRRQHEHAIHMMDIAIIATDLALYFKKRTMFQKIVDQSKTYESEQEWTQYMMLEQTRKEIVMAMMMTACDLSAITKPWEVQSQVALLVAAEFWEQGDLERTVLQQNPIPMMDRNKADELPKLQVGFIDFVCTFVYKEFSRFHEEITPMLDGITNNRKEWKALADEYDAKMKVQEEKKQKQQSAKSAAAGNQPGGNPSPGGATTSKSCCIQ

[7] = target: T4, Bile acid receptor (Homo sapiens, UniProt Q96RI1); type: functional
T4 sequence (Q96RI1 whole entry): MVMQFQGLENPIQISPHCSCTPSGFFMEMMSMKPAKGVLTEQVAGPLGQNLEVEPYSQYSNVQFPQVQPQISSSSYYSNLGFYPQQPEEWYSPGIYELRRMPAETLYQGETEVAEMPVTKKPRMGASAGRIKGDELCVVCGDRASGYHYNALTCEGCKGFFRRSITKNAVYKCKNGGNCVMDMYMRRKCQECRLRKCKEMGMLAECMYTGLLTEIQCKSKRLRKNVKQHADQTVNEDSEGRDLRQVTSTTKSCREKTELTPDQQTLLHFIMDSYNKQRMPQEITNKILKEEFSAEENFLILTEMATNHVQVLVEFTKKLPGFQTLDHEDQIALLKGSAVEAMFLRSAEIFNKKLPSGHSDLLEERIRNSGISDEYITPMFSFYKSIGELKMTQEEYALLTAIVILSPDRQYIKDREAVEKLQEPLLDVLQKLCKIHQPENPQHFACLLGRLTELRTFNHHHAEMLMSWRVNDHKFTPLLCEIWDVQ

[8] = target: T5, Peroxisome proliferator-activated receptor alpha (Homo sapiens, UniProt Q07869); type: functional
T5 sequence (Q07869 whole entry): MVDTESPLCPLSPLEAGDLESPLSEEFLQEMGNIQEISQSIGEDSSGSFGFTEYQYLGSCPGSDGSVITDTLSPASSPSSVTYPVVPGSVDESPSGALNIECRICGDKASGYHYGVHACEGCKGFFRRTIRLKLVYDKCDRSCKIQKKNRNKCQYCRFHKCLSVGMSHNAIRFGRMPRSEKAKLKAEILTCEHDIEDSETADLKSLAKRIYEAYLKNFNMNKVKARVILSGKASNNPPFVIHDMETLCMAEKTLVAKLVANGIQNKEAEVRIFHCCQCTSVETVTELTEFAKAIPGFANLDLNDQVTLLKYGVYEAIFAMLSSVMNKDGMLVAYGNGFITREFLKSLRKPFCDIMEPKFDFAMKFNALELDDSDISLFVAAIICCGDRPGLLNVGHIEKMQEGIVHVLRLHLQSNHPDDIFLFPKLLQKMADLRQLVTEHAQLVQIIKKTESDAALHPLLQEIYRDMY
Also: assay procedure not described here.

5-hydroxytryptamine receptor 2B, sequence (P41595 whole entry): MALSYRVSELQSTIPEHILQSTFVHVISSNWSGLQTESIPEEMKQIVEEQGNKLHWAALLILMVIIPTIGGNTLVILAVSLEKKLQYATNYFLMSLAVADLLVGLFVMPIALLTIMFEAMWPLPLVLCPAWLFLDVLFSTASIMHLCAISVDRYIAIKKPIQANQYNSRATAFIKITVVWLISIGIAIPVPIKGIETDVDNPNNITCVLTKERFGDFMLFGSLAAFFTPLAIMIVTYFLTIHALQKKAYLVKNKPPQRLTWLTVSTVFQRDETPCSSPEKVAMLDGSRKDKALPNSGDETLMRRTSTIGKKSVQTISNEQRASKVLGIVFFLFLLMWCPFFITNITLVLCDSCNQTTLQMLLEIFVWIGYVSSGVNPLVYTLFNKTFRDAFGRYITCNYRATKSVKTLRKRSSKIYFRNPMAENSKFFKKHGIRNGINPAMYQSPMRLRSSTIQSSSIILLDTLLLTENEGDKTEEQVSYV

Structure (SMILES): Cc1ccc(C(C)C)c(O)c1 [THYMOL]
- AC50 [1]: 9.1 µM

Structure (SMILES): CCN(CC)CCn1c(=O)c(Cc2ccc(OC)cc2)nc2ccccc21 [CAROVERINE]
- AC50 [2]: 15.9 µM

Structure (SMILES): CN(C)CCC=C1c2ccccc2CCc2ccccc21 [AMITRIPTYLINE]
- AC50 [2]: > 30 µM

Structure (SMILES): CC(=O)Oc1ccccc1C(=O)O [ASPIRIN]
- AC50 [3]: > 30 µM

Structure (SMILES): Cc1c(C)c2c(c(C)c1O)CCC(C)(COc1ccc(CC3SC(=O)NC3=O)cc1)O2 (centres undefined) [TROGLITAZONE]
- AC50 [4]: 3.4 µM

Structure (SMILES): CCOC(=O)[C@H](CCc1ccccc1)N[C@@H](C)C(=O)N1Cc2ccccc2C[C@H]1C(=O)O
- AC50 [5]: > 10 µM
- AC50 [6]: > 10 µM

Structure (SMILES): CC(C)/N=c1\cc2n(-c3ccc(Cl)cc3)c3ccccc3nc-2cc1Nc1ccc(Cl)cc1 [CLOFAZIMINE]
- AC50 [4]: > 30 µM
- AC50 [7]: > 30 µM
- AC50 [8]: > 30 µM

Structure (SMILES): CN(C)CCCC1(c2ccc(F)cc2)OCc2cc(C#N)ccc21 (centres undefined) [CITALOPRAM]
- AC50 [1]: 0.3 µM

Structure (SMILES): NCC1(CC(=O)O)CCCCC1 [GABAPENTIN]
- AC50 [3]: > 30 µM

Structure (SMILES): CC(=O)SCC(Cc1ccccc1)C(=O)NCC(=O)OCc1ccccc1 (centres undefined) [RACECADOTRIL]
- AC50 [8]: > 30 µM

Structure (SMILES): OCCOCCN1CCN(C(c2ccccc2)c2ccc(Cl)cc2)CC1 (centres undefined) [HYDROXYZINE]
- AC50 [5]: 0.28 µM
